# Data published in PubChem BioAssay (NCI).
#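 Results reflect a 48-hour exposure of cells in 96-well plates to compound at five concentrations. The concentration for full growth arrest is given as TGI.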
# How the values were obtained:
# Assay in all cases: NCI tumour cell line growth inhibition, 48 h
# [1] = system: 786-0 renal
# [2] = system: A498 renal
# [3] = system: A549 NSCLC
# [4] = system: ACHN renal
# [5] = system: BT-549 breast
# [6] = system: CAKI-1 renal
# [7] = system: CCRF-CEM leukemia
# [8] = system: COLO 205 colon
# [9] = system: DLD-1 colon
# [10] = system: DMS 114 small cell lung
# [11] = system: DMS 273 small cell lung
# [12] = system: DU-145 prostate
# [13] = system: EKVX NSCLC
# [14] = system: HCC-2998 colon
# [15] = system: HCT-116 colon
# [16] = system: HCT-15 colon
# [17] = system: HL-60(TB) leukemia
# [18] = system: HOP-18 NSCLC
# [19] = system: HOP-62 NSCLC
# [20] = system: HOP-92 NSCLC
# [21] = system: HS 578T breast
# [22] = system: HT29 colon
# [23] = system: IGROV1 ovarian
# [24] = system: K-562 leukemia
# [25] = system: KM12 colon
# [26] = system: KM20L2 colon
# [27] = system: LOX IMVI melanoma
# [28] = system: M14 melanoma
# [29] = system: M19-MEL melanoma
# [30] = system: MALME-3M melanoma
# [31] = system: MCF7 breast
# [32] = system: MDA-MB-231 breast
# [33] = system: MDA-MB-435
# [34] = system: MDA-N
# [35] = system: MOLT-4 leukemia
# [36] = system: NCI-H226 lung
# [37] = system: NCI-H23 lung
# [38] = system: NCI-H460 lung
# [39] = system: NCI-H522 lung
# [40] = system: NCI/ADR-RES ovarian
# [41] = system: OVCAR-3 ovarian
# [42] = system: OVCAR-4 ovarian
# [43] = system: OVCAR-5 ovarian
# [44] = system: OVCAR-8 ovarian
# [45] = system: P388 leukemia
# [46] = system: P388/ADR leukemia
# [47] = system: PC-3 prostate
# [48] = system: RPMI-8226 leukemia
# [49] = system: RXF 393 renal
# [50] = system: SF-268 CNS
# [51] = system: SF-295 CNS
# [52] = system: SF-539 CNS
# [53] = system: SK-MEL-2 melanoma
# [54] = system: SK-MEL-28 melanoma
# [55] = system: SK-MEL-5 melanoma
# [56] = system: SK-OV-3 ovarian
# [57] = system: SN12C renal
# [58] = system: SN12K1 renal
# [59] = system: SNB-19 CNS
# [60] = system: SNB-75 CNS
# [61] = system: SNB-78 CNS
# [62] = system: SR leukemia
# [63] = system: SW-620 colon
# [64] = system: T-47D breast
# [65] = system: TK-10 renal
# [66] = system: U251 CNS
# [67] = system: UACC-257 melanoma
# [68] = system: UACC-62 melanoma
# [69] = system: UO-31 renal
# [70] = system: XF 498 CNS
# [71] = system: LXFL 529 NSCLC
# [72] = system: RXF-631 renal
structure (smiles),measurement,setting,value
O=C(CCCN1CCC(C(O)c2ccc(F)cc2)CC1)c1ccc(F)cc1 (configuration not stated),TGI,[1],96.6 µM
same,TGI,[2],94.4 µM
same,TGI,[3],123 µM
same,TGI,[4],99.9 µM
same,TGI,[5],93 µM
same,TGI,[6],114 µM
same,TGI,[7],228 µM
same,TGI,[8],110 µM
same,TGI,[9],120 µM
same,TGI,[10],108 µM
same,TGI,[11],118 µM
same,TGI,[12],118 µM
same,TGI,[13],136 µM
same,TGI,[14],93.4 µM
same,TGI,[15],116 µM
same,TGI,[16],123 µM
same,TGI,[17],120 µM
same,TGI,[18],142 µM
same,TGI,[19],125 µM
same,TGI,[20],60.4 µM
same,TGI,[21],116 µM
same,TGI,[22],92.7 µM
same,TGI,[23],130 µM
same,TGI,[24],154 µM
same,TGI,[25],116 µM
same,TGI,[26],96 µM
same,TGI,[27],103 µM
same,TGI,[28],109 µM
same,TGI,[29],115 µM
same,TGI,[30],113 µM
same,TGI,[31],122 µM
same,TGI,[32],89.7 µM
same,TGI,[33],109 µM
same,TGI,[34],116 µM
same,TGI,[35],142 µM
same,TGI,[36],111 µM
same,TGI,[37],134 µM
same,TGI,[38],115 µM
same,TGI,[39],139 µM
same,TGI,[40],149 µM
same,TGI,[41],116 µM
same,TGI,[42],134 µM
same,TGI,[43],116 µM
same,TGI,[44],125 µM
same,TGI,[45],119 µM
same,TGI,[46],141 µM
same,TGI,[47],99.6 µM
same,TGI,[48],168 µM
same,TGI,[49],98.3 µM
same,TGI,[50],122 µM
same,TGI,[51],118 µM
same,TGI,[52],113 µM
same,TGI,[53],113 µM
same,TGI,[54],118 µM
same,TGI,[55],99.3 µM
same,TGI,[56],138 µM
same,TGI,[57],141 µM
same,TGI,[58],108 µM
same,TGI,[59],114 µM
same,TGI,[60],98.5 µM
same,TGI,[61],123 µM
same,TGI,[62],201 µM
same,TGI,[63],123 µM
same,TGI,[64],137 µM
same,TGI,[65],86.8 µM
same,TGI,[66],106 µM
same,TGI,[67],121 µM
same,TGI,[68],114 µM
same,TGI,[69],79.3 µM
same,TGI,[70],15.1 µM
Cc1ccc(NC(=O)CCc2n[nH]c(=S)o2)cc1,TGI,[1],> 100 µM
same,TGI,[2],> 100 µM
same,TGI,[3],> 100 µM
same,TGI,[4],> 100 µM
same,TGI,[6],> 100 µM
same,TGI,[7],> 100 µM
same,TGI,[8],> 100 µM
same,TGI,[9],> 100 µM
same,TGI,[10],> 100 µM
same,TGI,[11],> 100 µM
same,TGI,[13],> 100 µM
same,TGI,[14],> 100 µM
same,TGI,[15],> 100 µM
same,TGI,[16],> 100 µM
same,TGI,[17],> 100 µM
same,TGI,[18],> 100 µM
same,TGI,[19],> 100 µM
same,TGI,[20],> 100 µM
same,TGI,[22],> 100 µM
same,TGI,[23],> 100 µM
same,TGI,[24],> 100 µM
same,TGI,[25],> 100 µM
same,TGI,[26],> 100 µM
same,TGI,[27],> 100 µM
same,TGI,[71],> 100 µM
same,TGI,[28],> 100 µM
same,TGI,[29],> 100 µM
same,TGI,[30],> 100 µM
same,TGI,[35],> 100 µM
same,TGI,[36],> 100 µM
same,TGI,[37],> 100 µM
same,TGI,[38],> 100 µM
same,TGI,[39],> 100 µM
same,TGI,[41],> 100 µM
same,TGI,[42],> 100 µM
same,TGI,[43],> 100 µM
same,TGI,[44],> 100 µM
same,TGI,[49],> 100 µM
same,TGI,[72],> 100 µM
same,TGI,[50],> 100 µM
same,TGI,[51],> 100 µM
same,TGI,[52],> 100 µM
same,TGI,[54],> 100 µM
same,TGI,[55],> 100 µM
same,TGI,[57],> 100 µM
same,TGI,[59],> 100 µM
same,TGI,[60],> 100 µM
same,TGI,[61],> 100 µM
same,TGI,[62],> 100 µM
same,TGI,[63],> 100 µM
same,TGI,[65],> 100 µM
same,TGI,[66],> 100 µM
same,TGI,[67],> 100 µM
same,TGI,[68],> 100 µM
same,TGI,[69],> 100 µM
same,TGI,[70],> 100 µM
C=C1C(=O)OC2CC(C)C3C4OC4C(O)C3(C)C(O)C12 (configuration not stated),TGI,[2],44.4 µM
same,TGI,[3],121 µM
same,TGI,[6],67.9 µM
same,TGI,[7],56 µM
same,TGI,[8],51.6 µM
same,TGI,[9],87.8 µM
same,TGI,[10],45.9 µM
same,TGI,[11],67.2 µM
same,TGI,[13],63.9 µM
same,TGI,[14],75.8 µM
same,TGI,[15],55.6 µM
same,TGI,[16],77.6 µM
same,TGI,[17],> 51.6 µM
same,TGI,[18],72.4 µM
same,TGI,[19],127 µM
same,TGI,[20],61.9 µM
same,TGI,[22],83.8 µM
same,TGI,[23],52.1 µM
same,TGI,[24],91.6 µM
same,TGI,[25],71.1 µM
same,TGI,[26],42.8 µM
same,TGI,[27],65.3 µM
same,TGI,[29],69.7 µM
same,TGI,[30],67.1 µM
same,TGI,[31],66.7 µM
same,TGI,[35],41.8 µM
same,TGI,[36],> 68 µM
same,TGI,[37],55.5 µM
same,TGI,[38],62.9 µM
same,TGI,[39],26.4 µM
same,TGI,[40],91.9 µM
same,TGI,[41],69.3 µM
same,TGI,[42],59.7 µM
same,TGI,[43],108 µM
same,TGI,[44],91.6 µM
same,TGI,[45],43.7 µM
same,TGI,[46],49.3 µM
same,TGI,[48],51.1 µM
same,TGI,[49],53.7 µM
same,TGI,[50],71.7 µM
same,TGI,[51],98 µM
same,TGI,[52],45.6 µM
same,TGI,[53],72.7 µM
same,TGI,[54],71.2 µM
same,TGI,[55],87.1 µM
same,TGI,[56],98.8 µM
same,TGI,[57],72 µM
same,TGI,[58],70.8 µM
same,TGI,[59],102 µM
same,TGI,[60],92.1 µM
same,TGI,[61],61.6 µM
same,TGI,[63],54.6 µM
same,TGI,[66],96.6 µM
same,TGI,[67],104 µM
same,TGI,[68],43.8 µM
same,TGI,[69],149 µM
same,TGI,[70],47.4 µM
CC1=Nc2c([nH]c(=S)[nH]c2=O)NC(c2c(Cl)cccc2Cl)C1 (configuration not stated),TGI,[1],1.76 µM
same,TGI,[2],6.68 µM
same,TGI,[3],15 µM
same,TGI,[4],11 µM
same,TGI,[5],2.64 µM
same,TGI,[6],14.8 µM
same,TGI,[7],2.18 µM
same,TGI,[8],4.34 µM
same,TGI,[9],5.85 µM
same,TGI,[10],13.8 µM
same,TGI,[11],4.4 µM
same,TGI,[12],3.51 µM
same,TGI,[13],18.7 µM
same,TGI,[14],22.9 µM
same,TGI,[15],1.59 µM
same,TGI,[16],8.67 µM
same,TGI,[17],2.54 µM
same,TGI,[18],30.2 µM
same,TGI,[19],13.6 µM
same,TGI,[20],17.2 µM
same,TGI,[21],17.1 µM
same,TGI,[22],2.35 µM
same,TGI,[23],5.45 µM
same,TGI,[24],2.21 µM
same,TGI,[25],4.51 µM
same,TGI,[26],13.6 µM
same,TGI,[27],1.84 µM
same,TGI,[71],10.2 µM
same,TGI,[28],6.47 µM
same,TGI,[29],3.17 µM
same,TGI,[30],12.9 µM
same,TGI,[31],3.12 µM
same,TGI,[32],1.87 µM
same,TGI,[33],2.88 µM
same,TGI,[34],1.99 µM
same,TGI,[35],5.43 µM
same,TGI,[36],15 µM
same,TGI,[37],7.4 µM
same,TGI,[38],5.64 µM
same,TGI,[39],7.33 µM
same,TGI,[40],0.412 µM
same,TGI,[41],4.16 µM
same,TGI,[42],9.09 µM
same,TGI,[43],11.9 µM
same,TGI,[44],1.85 µM
same,TGI,[47],2.6 µM
same,TGI,[48],4.04 µM
same,TGI,[49],9.91 µM
same,TGI,[72],22.5 µM
same,TGI,[50],3.96 µM
same,TGI,[51],4.41 µM
same,TGI,[52],4.2 µM
same,TGI,[53],32.9 µM
same,TGI,[54],6.26 µM
same,TGI,[55],9.99 µM
same,TGI,[56],18.1 µM
same,TGI,[57],3.09 µM
same,TGI,[59],6.37 µM
same,TGI,[60],10.6 µM
same,TGI,[61],25 µM
same,TGI,[62],1.68 µM
same,TGI,[63],2.05 µM
same,TGI,[64],3.21 µM
same,TGI,[65],18 µM
same,TGI,[66],2.32 µM
same,TGI,[67],9.4 µM
same,TGI,[68],4.45 µM
same,TGI,[69],10.2 µM
same,TGI,[70],10.9 µM
